Values joined by “and” are separate entries in the source; they are usually repeats but may differ in a detail not shown here. Equal values may be shown once. Read-outs that look alike come from different tables or passages of the source. A value given as a limit tells only on which side of the number the result lay.

As a reminder, the % Inhibition is the relative decrease from the control value, in per cent. What is called inhibition is the percentage by which the read-out fell short of the control. A word on the IC50: it is the point on the concentration scale where inhibition reaches its midpoint.

The target of the assay is T1, DYRK2 (Homo sapiens, UniProt Q92630).
T1 construct: purchased Reaction Biology Corporation (assay service)
T1 sequence (Q92630 1-601): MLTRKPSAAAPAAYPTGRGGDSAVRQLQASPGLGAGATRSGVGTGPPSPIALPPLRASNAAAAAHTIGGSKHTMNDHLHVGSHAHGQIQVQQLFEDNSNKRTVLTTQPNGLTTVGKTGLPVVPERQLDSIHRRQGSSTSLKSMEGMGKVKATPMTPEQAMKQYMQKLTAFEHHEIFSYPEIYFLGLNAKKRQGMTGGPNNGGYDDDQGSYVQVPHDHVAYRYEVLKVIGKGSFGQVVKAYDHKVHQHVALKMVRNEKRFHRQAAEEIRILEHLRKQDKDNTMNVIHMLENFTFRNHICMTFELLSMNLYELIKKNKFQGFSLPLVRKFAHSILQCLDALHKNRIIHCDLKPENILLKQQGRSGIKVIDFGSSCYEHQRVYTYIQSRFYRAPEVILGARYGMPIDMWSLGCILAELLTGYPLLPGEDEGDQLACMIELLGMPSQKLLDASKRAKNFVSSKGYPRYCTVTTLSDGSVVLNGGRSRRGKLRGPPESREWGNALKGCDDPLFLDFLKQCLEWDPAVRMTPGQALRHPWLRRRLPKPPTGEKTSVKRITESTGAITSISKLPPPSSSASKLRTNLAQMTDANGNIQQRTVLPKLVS
The assay can be described thus: DYRKs kinase activity assay (33P-ATP, DYRKtide substrate): DYRK2. The assay is classed as biochemical. Conditions: for DYRK2 inhibitory activity (in words): structural optimization of lead 12.

[1] abbreviates: DYRK2 kinase, Conc. 1.66667 µM, duplicate values.
The mark [2] stands for this setting: DYRK2 kinase, Conc. 0.000508053 µM, duplicate values.
Where [3] appears, read: DYRK2 kinase, Conc. 0.00152416 µM, duplicate values.
The mark [4] stands for this setting: DYRK2 kinase, Conc. 0.00457247 µM, duplicate values.
Setting [5] is: DYRK2 kinase, Conc. 0.0137174 µM, duplicate values.
Setting [6] is: DYRK2 kinase, Conc. 0.0137174 µM, duplicate values, read-out: % Inhibition.
[7] abbreviates: DYRK2 kinase, Conc. 0.0411523 µM, duplicate values.
[8] abbreviates: DYRK2 kinase, Conc. 0.0411523 µM, duplicate values, read-out: % Inhibition.
Where [9] appears, read: DYRK2 kinase, Conc. 0.123457 µM, duplicate values.
Where [10] appears, read: DYRK2 kinase, Conc. 0.123457 µM, duplicate values, read-out: % Inhibition.
[11] abbreviates: DYRK2 kinase, Conc. 0.37037 µM, duplicate values.
Setting [12] is: DYRK2 kinase, Conc. 0.37037 µM, duplicate values, read-out: % Inhibition.
Where [13] appears, read: DYRK2 kinase, Conc. 1.11111 µM, duplicate values.
Setting [14] is: DYRK2 kinase, Conc. 1.11111 µM, duplicate values, read-out: % Inhibition.
Setting [15] is: DYRK2 kinase, Conc. 3.33333 µM, duplicate values.
The mark [16] stands for this setting: DYRK2 kinase, Conc. 3.33333 µM, duplicate values, read-out: % Inhibition.
Setting [17] is: DYRK2 kinase, Conc. 10 µM, duplicate values.
The mark [18] stands for this setting: DYRK2 kinase, Conc. 10 µM, duplicate values, read-out: % Inhibition.
Where [19] appears, read: Supplementary Table 1, read-out: IC50 (μM), DYRK2 kinase.

`CCN1CCN(C(=O)c2ccc(Nc3ncc(F)c(-c4ccc5nc(N(C)C)sc5c4)n3)nc2)CC1` [Compound 26 (YK-2-69)]: the “% Inhibition” value was 2.89% and 7.10% (DYRK2 kinase, Conc. 0.000762079 µM, duplicate values); 21.49% (DYRK2 kinase, Conc. 0.00228624 µM, duplicate values); 46.13% (DYRK2 kinase, Conc. 0.00685871 µM, duplicate values); 59.65% (DYRK2 kinase, Conc. 0.0205761 µM, duplicate values); 82.13% (DYRK2 kinase, Conc. 0.0617284 µM, duplicate values); 93.18% (DYRK2 kinase, Conc. 0.185185 µM, duplicate values). For the same molecule, the “% Inhibition” value runs as follows: (DYRK2 kinase, Conc. 0.555556 µM, duplicate values) 96.77%; under setting [1], 98.11%; (DYRK2 kinase, Conc. 5 µM, duplicate values) 97.16%. The inhibition at 0.00228624 µM (DYRK2 kinase, Conc. 0.00228624 µM, duplicate values, read-out: % Inhibition) is 26.1%. Where the note is “DYRK2 kinase, Conc. 0.00685871 µM, duplicate values, read-out: % Inhibition”, the inhibition at 0.00685871 µM stood at 53%. Besides, the inhibition at 0.0205761 µM (DYRK2 kinase, Conc. 0.0205761 µM, duplicate values, read-out: % Inhibition) amounted to 65.2%. The inhibition at 0.0617284 µM (DYRK2 kinase, Conc. 0.0617284 µM, duplicate values, read-out: % Inhibition) came out at 82.1%. The inhibition at 0.185185 µM (DYRK2 kinase, Conc. 0.185185 µM, duplicate values, read-out: % Inhibition) came out at 94.1%. The inhibition at 0.555556 µM (DYRK2 kinase, Conc. 0.555556 µM, duplicate values, read-out: % Inhibition) was 96.8%. The inhibition at 1.66667 µM under setting [1] turned out to be 97.3%. For the same molecule, where the note is “DYRK2 kinase, Conc. 5 µM, duplicate values, read-out: % Inhibition”, the inhibition at 5 µM worked out at 97.8%.
On to `Cc1nc2ccc(-c3nc(Nc4ccc(C(=O)N5CCNCC5)cn4)ncc3F)cc2s1.Cl` [Compound 24], for which the “% Inhibition” value is 2.20% and 10.58% under setting [2]; 4.62% and 14.25% under setting [3]; 24.52% under setting [4]; 39.86% under setting [5]; 60.50% under setting [7]; 75.45% under setting [9]. Also, the “% Inhibition” value under setting [11] was 85.34%, the “% Inhibition” value under setting [13] is 90.57%, the “% Inhibition” value under setting [15] is listed as 94.68% and the “% Inhibition” value under setting [17] is reported as 98.21%. For the same molecule, the inhibition at 0.00457247 µM under setting [4] turned out to be 19.2%. Also, the inhibition at 0.0137174 µM under setting [6] worked out at 35.4%. Also, under setting [8], the inhibition at 0.0411523 µM was 61%. For the same molecule, under setting [10], the inhibition at 0.123457 µM worked out at 73%. The inhibition at 0.37037 µM under setting [12] turned out to be 86.1%. Also, under setting [14], the inhibition at 1.11111 µM is 92%. In addition, the inhibition at 3.33333 µM under setting [16] stood at 95%. The inhibition at 10 µM under setting [18] was found to be 97%. The IC50 (read-out: DYRK2 IC50) was 0.027 µM.
As for `Cn1c(=O)c2ncn(CC(=O)Nc3ccc4oc(-c5ccc(Cl)cc5Cl)nc4c3)c2n(C)c1=O` [Compound 10], the “% Inhibition” value is, setting by setting: under setting [2], -7.03% and -8.01%; under setting [3], -4.24% and -5.18%; under setting [4], -3.26% and -1.51%; under setting [5], -9.75% and -7.91%; under setting [7], -10.96% and -9.20%; under setting [9], 0.34% and -3.30%. For the same molecule, the “% Inhibition” value is 1.49% and 3.01% under setting [11]; 15.95% and 17.31% under setting [13]; 6.96% and 8.47% under setting [15]; 22.24% and 25.76% under setting [17]. Further, the IC50 under setting [19] was above 10 µM.
For the molecule `CC(C)(C)OC(=O)N1CCN(Cc2ccc(Nc3ncc(F)c(-c4ccc5ncsc5c4)n3)nc2)CC1` [Compound 17], the “DYRK2 inhibitory activity (in words)” value is on record as “significantly decreased activity”. Moreover, under setting [2], the “% Inhibition” value was -1.98% and -2.03%. The “% Inhibition” value under setting [3] is -0.44% and -0.45%. Moreover, the “% Inhibition” value under setting [4] is -0.11% and -0.23%. For the same molecule, the “% Inhibition” value under setting [5] turned out to be 0.54%. The inhibition at 0.0137174 µM under setting [6] is 0.53%. In addition, the “% Inhibition” value under setting [7] is 9.25%. Under setting [8], the inhibition at 0.0411523 µM amounted to 8.33%. Also, under setting [9], the “% Inhibition” value was determined as 18.48%. Moreover, the inhibition at 0.123457 µM under setting [10] is 18.1%. The “% Inhibition” value under setting [11] is 37.11%. Further, the inhibition at 0.37037 µM under setting [12] is 36.6%. In addition, the “% Inhibition” value under setting [13] is listed as 48.09%. In addition, under setting [14], the inhibition at 1.11111 µM came to 47%. Besides, under setting [15], the “% Inhibition” value was determined as 58.92%. For the same molecule, the inhibition at 3.33333 µM under setting [16] was found to be 57.6%. Also, the “% Inhibition” value under setting [17] was found to be 60.62%. The inhibition at 10 µM under setting [18] amounted to 59.4%.
As to `CC(C)Cc1nc(N2CCN(CC(=O)NCc3ccco3)CC2)c(C#N)c2c1COC(C)(C)C2` [Compound 14], the “% Inhibition” value is, setting by setting: under setting [2], 0.98% and 2.97%; under setting [3], 13.91% and 15.64%; under setting [4], 3.50% and 5.44%; under setting [5], 7.06% and 8.93%; under setting [7], 12.96% and 14.71%; under setting [9], 25.38% and 26.88%. Besides, the “% Inhibition” value is, setting by setting: under setting [11], 22.08% and 23.65%; under setting [13], 26.44% and 27.92%; under setting [15], 22.42% and 24.14%; under setting [17], 27.65% and 29.11%. Also, under setting [19], the IC50 was above 10 µM.
For the molecule `Cl.Fc1cnc(Nc2ccc(N3CCNCC3)cn2)nc1-c1ccc2ncsc2c1` [Compound 21], the “% Inhibition” value under setting [2] amounted to 9.05%; the “% Inhibition” value under setting [3] is 8.33%; the “% Inhibition” value under setting [4] is 11.99%; the “% Inhibition” value under setting [5] is 16.84%; the “% Inhibition” value under setting [7] was 38.81%; the “% Inhibition” value under setting [9] is 56.81%. For the same molecule, the “% Inhibition” value stood at 75.73% under setting [11], 88.57% under setting [13], 94.50% under setting [15] and 95.74% under setting [17]. The same molecule registered an inhibition at 0.000508053 µM under setting [2] of 8.81%. Further, the inhibition at 0.00152416 µM (DYRK2 kinase, Conc. 0.00152416 µM, duplicate values, read-out: % Inhibition) turned out to be 12.2%. The molecule further returned an inhibition at 0.00457247 µM under setting [4] of 13.8%. For the same molecule, the inhibition at 0.0137174 µM under setting [6] came to 14%. Further, the inhibition at 0.0411523 µM under setting [8] came to 36.7%. In addition, the inhibition at 0.123457 µM under setting [10] stood at 55.4%. The inhibition at 0.37037 µM under setting [12] stood at 74%. Besides, under setting [14], the inhibition at 1.11111 µM was 86.9%. For the same molecule, the inhibition at 3.33333 µM under setting [16] stood at 95.3%. In addition, the inhibition at 10 µM under setting [18] turned out to be 96.6%. Moreover, the 50% inhibitory concentration (IC50) (read-out: DYRK2 IC50) was 0.085 µM.
Consider `Cc1ccc(CN(Cc2ccc(C=NNC(=O)c3c(C)nc4sccn34)o2)S(=O)(=O)c2ccc(C)cc2)cc1` [Compound 7], for which the “% Inhibition” value runs as follows: under setting [2], -2.50% and -2.39%; under setting [3], -0.71% and 1.61%; under setting [4], 3.49% and 3.33%; under setting [5], 5.71% and 7.69%; under setting [7], -2.86% and -2.73%; under setting [9], 2.70% and 2.58%. Moreover, the “% Inhibition” value is 3.31% and 5.45% under setting [11]; -1.26% and -1.20% under setting [13]; 2.47% and 2.36% under setting [15]; 8.07% and 7.70% under setting [17]. Besides, the IC50 under setting [19] is above 10 µM.
For `CCN1CCN(Cc2ccc(Nc3ncc(F)c(-c4cnc5ccnn5c4)n3)nc2)CC1` [Compound 19], the “DYRK2 inhibitory activity (in words)” value was “significantly decreased”. Besides, the “% Inhibition” value under setting [2] was -1.87% and -5.39%. The “% Inhibition” value under setting [3] was -4.33% and -7.82%. Also, under setting [4], the “% Inhibition” value was -8.64% and -11.90%. For the same molecule, the “% Inhibition” value under setting [5] is -12.62% and -14.01%. For the same molecule, the “% Inhibition” value under setting [7] is -8.54% and -12.22%. Further, under setting [9], the “% Inhibition” value is 0.35% and 0.01%. Also, under setting [11], the “% Inhibition” value is 1.52% and -0.10%. For the same molecule, the “% Inhibition” value under setting [13] is 6.04%. Also, under setting [14], the inhibition at 1.11111 µM worked out at 8.33%. For the same molecule, under setting [15], the “% Inhibition” value is 1.80% and -0.24%. Also, the “% Inhibition” value under setting [17] amounted to 26.16%. In addition, under setting [18], the inhibition at 10 µM is 28%.

The record behind these values is article PMC9133015 (Nature Communications, 2022).
